Consider 2 compounds from patent US9686985B2, “Fungicide N-cycloalkyl-N-bicyclicmethylene-carboxamide derivatives” (BAYER INTELLECTUAL PROPERTY GMBH, priority 2012, dated 2017).

One data set deals with Venturia inaequalis. The experiment in a line: Example E: in vivo preventive test on Venturia inaequalis (apples). The settings on record: table E, 100 ppm, evaluated 10 days after inoculation. On the procedure:
(§1) Example E: In Vivo Preventive Test on Venturia inaequalis (Apples) [table] To produce a suitable preparation of active compound, 1 part by weight of active compound is mixed with the stated amounts of solvent and emulsifier, and the concentrate is diluted with water to the desired concentration. To test for preventive activity, young plants are sprayed with the preparation of active compound at the stated rate of application. After the spray coating has dried on, the plants are inoculated with an aqueous conidia suspension of the causal agent of apple scab (Venturia inaequalis) and then remain for 1 day in an incubation cabinet at approximately 20° C. and a relative atmospheric humidity of 100%. The plants are then placed in a greenhouse at approximately 21° C. and a relative atmospheric humidity of approximately 90%.

Data set [1] is described as follows: log P by HPLC on reversed-phase column (EEC Directive 79/831 Annex V.A8). The settings on record: Table 1; HPLC C18, 40° C., 0.1% aqueous formic acid and acetonitrile gradient. Type of data set: physicochemical. Put shortly: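 Column at 40° C; mobile phases 0.1% aqueous formic acid and acetonitrile, linear gradient 10% to 90% acetonitrile. Calibrated with unbranched alkan-2-ones (3 to 16 carbons) of known log P; values from retention times by linear interpolation between two successive alkanones.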

Data set [2] has as its system Pyrenophora teres. Nature of the data set: Example M: in vivo preventive test on Pyrenophora teres (barley). To be noted: table M, 500 ppm, evaluated 8 days after inoculation. How it is done: Example M: In Vivo Preventive Test on Pyrenophora teres (Barley) [table] To produce a suitable preparation of active compound, 1 part by weight of active compound or active compound combination is mixed with the stated amounts of solvent and emulsifier, and the concentrate is diluted with water to the desired concentration. To test for preventive activity, young plants are sprayed with the preparation of active compound or active compound combination at the stated rate of application. After the spray coating has been dried, the plants are sprayed with a spore suspension of Pyrenophora teres. The plants remain for 48 hours in an incubation cabinet at approximately 20° C. and a relative atmospheric humidity of approximately 100%. The plants are placed in the greenhouse at a temperature of approximately 20° C. and a relative atmospheric humidity of approximately 80%.

The test system of data set [3] is Blumeria graminis f.sp. hordei. Nature of the data set: Example I: in vivo preventive test on Blumeria graminis (barley). The settings on record: table I, 500 ppm, evaluated 7 days after inoculation. On the procedure:
Example I: In Vivo Preventive Test on Blumeria graminis (Barley) [table] To produce a suitable preparation of active compound, 1 part by weight of active compound or active compound combination is mixed with the stated amounts of solvent and emulsifier, and the concentrate is diluted with water to the desired concentration. To test for preventive activity, young plants are sprayed with the preparation of active compound or active compound combination at the stated rate of application. After the spray coating has been dried, the plants are dusted with spores of Blumeria graminis f.sp. hordei. The plants are placed in the greenhouse at a temperature of approximately 18° C. and a relative atmospheric humidity of approximately 80% to promote the development of mildew pustules.

For data set [4], the system named is Pyrenophora teres. The experiment in a line: Example N: in vivo preventive test on Pyrenophora teres (barley). The settings on record: table N; 500 ppm; barley plants; grading 14 days after contamination. Put shortly: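 Barley (cv. Plaisant) at 1-leaf stage was sprayed with compound, then inoculated 24 h later with P. teres spores (12 000/mL). Plants were held 48 h at 20 °C, 100% RH, then 12 days at 20 °C, 70-80% RH; % efficacy versus solvent-treated controls was graded 14 days post-inoculation.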

The next data set relates to Septoria tritici. The experiment in a line: Example L: in vivo preventive test on Septoria tritici (wheat). To be noted: table L; 500 ppm; wheat plants; grading 24 days after contamination. The essentials: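 Scipion wheat at 1-leaf stage sprayed with compound, inoculated 24 h later with Septoria tritici spores (500 000/mL). Incubated 72 h at 18° C., 100% RH, then 21 days at 90% RH; % efficacy versus untreated controls graded 24 days post-inoculation.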

The subject of the next data set is Uromyces appendiculatus. The experiment in a line: Example F: in vivo preventive test on Uromyces appendiculatus (beans). The settings on record: table F, 100 ppm, evaluated 10 days after inoculation. How it is done: as §1, with “F:” for “E:”, “Uromyces appendiculatus (Beans)” for “Venturia inaequalis (Apples)”, “spore” for “conidia”, “bean rust (Uromyces appendiculatus)” for “apple scab (Venturia inaequalis)”

Another data set deals with Puccinia recondita. Nature of the data set: Example R: in vivo preventive test on Puccinia recondita (brown rust on wheat). To be noted: table R; 500 ppm; wheat plants; grading 12 days after contamination. Put shortly:
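Wheat seedlings (Scipion) sprayed with active ingredient at 1 leaf stage, then inoculated 24 hours later with 100 000 spores/mL Puccinia recondita. Incubated 24 hours at 20° C. and 100% humidity, then 10 days at 20° C. and 70-80% humidity; % efficacy versus solvent-treated controls graded 12 days post-contamination.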

`CC(C1CCCc2ccccc21)N(C(=O)c1c(C(F)F)nn(C)c1F)C1CC1` (stereo not shown) [I.23]: the Efficacy amounted to 100% in the data set with Venturia inaequalis; 100% in the data set with Pyrenophora teres [2]; 78% in data set [3]; 100% in the data set on Pyrenophora teres [4]; 100% in the data set with Septoria tritici; 96% with Uromyces appendiculatus. In addition, the Efficacy in the data set on Puccinia recondita is recorded as 97%. Also, the logP in data set [1] stood at 4.08.
As to `Cn1nc(C(F)F)c(C(=O)N(CC2CC(C)(C)Oc3ccccc32)C2CC2)c1F` (stereo not shown) [I.33], the Efficacy in the data set on Venturia inaequalis is on record as 97%; in the data set with Pyrenophora teres [2], 100%; in data set [3], 100%; in the data set with Pyrenophora teres [4] it was 100%; with Septoria tritici, 100%; with Uromyces appendiculatus, 100%. In the data set on Puccinia recondita, this compound registered an Efficacy of 97%. This compound also showed a logP in data set [1] of 3.53.
